In article PMC7838546, “A Thermostable, Modified Cathelicidin-Derived Peptide With Enhanced Membrane-Active Activity Against Salmonella enterica serovar Typhimurium” (Frontiers in Microbiology, 2021):

System: L929 mouse fibroblast cells
Assay: Cytotoxicity assay (MTT)
Type: cell-based
Conditions: 24 h, 62.5 μg/ml
Method: The toxicity of P7 peptide on L929 mouse fibroblast cells was assessed by a dye reduction assay using 3-(4,5 dimethylthiazol-2-yl)-2,5-diphenyltetrazolium bromide (MTT). Briefly, 3 × 10^4 L929 cells in RPMI 1640 [supplemented with 10% (v/v) fetal bovine serum, 0.2% (w/v) sodium bicarbonate, 2 mM L-glutamine, 100 U/ml penicillin and […] streptomycin] were seeded into each well of 96-well plates and then incubated in a humidified atmosphere with 5% CO2 at 37°C for 24 h. After the incubation period, the peptide was added to obtain final concentrations of 0.98–250 μg/ml; plates were incubated at 37°C under 5% CO2 for 24 h. RPMI 1640 medium with and without cells were used as positive and negative controls, respectively. After incubation, a final concentration of 0.5 mg/ml MTT (Sigma-Aldrich, MO, United States) was added and incubated at 37°C under 5% CO2 for 4 h. Then, the supernatants were removed from each well and 150 μl of dimethyl sulfoxide (DMSO) was added and mixed thoroughly to solubilize the formazan crystals. Subsequently, absorbance was measured at 570 nm using a microplate reader. The cell viability (%) was calculated according to the formula:
%Cellviability=ODTreated-ODBlank/ODUntreated-ODBlank×100

Structure (SMILES): CC[C@H](C)[C@H](NC(=O)CN)C(=O)NCC(=O)N[C@@H](C)C(=O)N[C@H](C(=O)N[C@@H](CC(C)C)C(=O)N[C@@H](CCCCN)C(=O)N[C@H](C(=O)N[C@@H](CC(C)C)C(=O)N[C@H](C(=O)N[C@H](C(=O)NCC(=O)N[C@@H](CC(C)C)C(=O)N1CCC[C@H]1C(=O)N[C@@H](C)C(=O)N[C@@H](CC(C)C)C(=O)N[C@H](C(=O)N[C@@H](CO)C(=O)N[C@@H](Cc1c[nH]c2ccccc12)C(=O)N[C@H](C(=O)N[C@@H](CCCCN)C(=O)N[C@@H](CCCNC(=N)N)C(=O)N[C@@H](CCCCN)C(=O)N[C@@H](CCCNC(=N)N)C(=O)N[C@@H](CCC(N)=O)C(=O)N[C@@H](CCC(N)=O)C(N)=O)[C@@H](C)CC)[C@@H](C)CC)[C@@H](C)O)[C@@H](C)O)C(C)C)C(C)C [Melittin, reference compound]
- Cell viability: less than 10%
